PubChem BioAssay (NCI)
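In this assay, cells in 96-well plates receive the compound at five concentrations for 48 hours. Endpoints are linearly interpolated between the surrounding concentrations. TGI is the concentration that stops growth completely.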

Tests used:
Test in all cases: NCI tumour cell line growth inhibition, 48 h
[1] = tested on: EKVX NSCLC
[2] = tested on: KM12 colon
[3] = tested on: UACC-257 melanoma
[4] = tested on: RXF 393 renal
[5] = tested on: ACHN renal
[6] = tested on: MDA-MB-231 breast
[7] = tested on: CAKI-1 renal
[8] = tested on: MDA-MB-435
[9] = tested on: MALME-3M melanoma
[10] = tested on: BT-549 breast
[11] = tested on: NCI-H226 lung
[12] = tested on: SR leukemia
[13] = tested on: MDA-N
[14] = tested on: HL-60(TB) leukemia
[15] = tested on: SNB-19 CNS
[16] = tested on: SN12C renal
[17] = tested on: SW-620 colon
[18] = tested on: OVCAR-3 ovarian
[19] = tested on: UO-31 renal
[20] = tested on: K-562 leukemia
[21] = tested on: SK-MEL-5 melanoma
[22] = tested on: U251 CNS
[23] = tested on: NCI-H460 lung
[24] = tested on: CCRF-CEM leukemia
[25] = tested on: HCC-2998 colon
[26] = tested on: NCI-H522 lung
[27] = tested on: OVCAR-5 ovarian
[28] = tested on: DU-145 prostate
[29] = tested on: SK-OV-3 ovarian
[30] = tested on: SNB-75 CNS
[31] = tested on: TK-10 renal
[32] = tested on: SF-539 CNS
[33] = tested on: NCI/ADR-RES ovarian
[34] = tested on: OVCAR-8 ovarian
[35] = tested on: MCF7 breast
[36] = tested on: A549 NSCLC
[37] = tested on: SF-295 CNS
[38] = tested on: LOX IMVI melanoma
[39] = tested on: MOLT-4 leukemia
[40] = tested on: HS 578T breast
[41] = tested on: NCI-H23 lung
[42] = tested on: SF-268 CNS
[43] = tested on: 786-0 renal
[44] = tested on: HT29 colon
[45] = tested on: SK-MEL-2 melanoma
[46] = tested on: HCT-116 colon
[47] = tested on: M14 melanoma
[48] = tested on: RPMI-8226 leukemia
[49] = tested on: PC-3 prostate
[50] = tested on: IGROV1 ovarian
[51] = tested on: UACC-62 melanoma
[52] = tested on: HCT-15 colon
[53] = tested on: COLO 205 colon
[54] = tested on: A498 renal
[55] = tested on: SK-MEL-28 melanoma
[56] = tested on: HOP-62 NSCLC
[57] = tested on: OVCAR-4 ovarian
[58] = tested on: HOP-92 NSCLC
[59] = tested on: T-47D breast

## CC12C(=O)OC(=O)C1(C)C1C=CC2O1 (configuration not stated)
[1]
  TGI: > 100 µM
[2]
  TGI: > 100 µM
[3]
  TGI: > 100 µM
[4]
  TGI: > 100 µM
[5]
  TGI: > 100 µM
[6]
  TGI: > 100 µM
[7]
  TGI: > 100 µM
[8]
  TGI: > 100 µM
[9]
  TGI: > 100 µM
[10]
  TGI: > 100 µM
[11]
  TGI: 48.1 µM
[12]
  TGI: > 100 µM
[13]
  TGI: > 100 µM
[14]
  TGI: > 100 µM
[15]
  TGI: > 100 µM
[16]
  TGI: > 100 µM
[17]
  TGI: > 100 µM
[18]
  TGI: 99 µM
[19]
  TGI: > 100 µM
[20]
  TGI: > 100 µM
[21]
  TGI: > 100 µM
[22]
  TGI: > 100 µM
[23]
  TGI: > 100 µM
[24]
  TGI: > 100 µM
[25]
  TGI: > 100 µM
[26]
  TGI: > 100 µM
[27]
  TGI: > 100 µM
[28]
  TGI: > 100 µM
[29]
  TGI: > 100 µM
[30]
  TGI: > 100 µM
[31]
  TGI: > 100 µM
[32]
  TGI: > 100 µM
[33]
  TGI: > 100 µM
[34]
  TGI: > 100 µM
[35]
  TGI: > 100 µM
[36]
  TGI: > 100 µM
[37]
  TGI: > 100 µM
[38]
  TGI: > 100 µM
[39]
  TGI: > 100 µM
[40]
  TGI: > 100 µM
[41]
  TGI: > 100 µM
[42]
  TGI: > 100 µM
[43]
  TGI: > 100 µM
[44]
  TGI: > 100 µM
[45]
  TGI: > 100 µM
[46]
  TGI: > 100 µM
[47]
  TGI: > 100 µM
[48]
  TGI: > 100 µM
[49]
  TGI: > 100 µM
[50]
  TGI: > 100 µM
[51]
  TGI: > 100 µM
[52]
  TGI: > 100 µM
[53]
  TGI: > 100 µM
[54]
  TGI: > 100 µM
[55]
  TGI: > 100 µM

## COc1ccc(C(c2ccc3c(c2)OCO3)N2C(=O)CCC2C(=O)O)cc1 (configuration not stated)
[1]
  TGI: > 100 µM
[2]
  TGI: > 100 µM
[3]
  TGI: > 100 µM
[56]
  TGI: > 100 µM
[5]
  TGI: > 100 µM
[6]
  TGI: > 100 µM
[7]
  TGI: > 100 µM
[8]
  TGI: > 100 µM
[57]
  TGI: > 100 µM
[9]
  TGI: > 100 µM
[10]
  TGI: > 100 µM
[11]
  TGI: > 100 µM
[12]
  TGI: > 100 µM
[13]
  TGI: > 100 µM
[14]
  TGI: > 100 µM
[15]
  TGI: > 100 µM
[16]
  TGI: > 100 µM
[17]
  TGI: > 100 µM
[18]
  TGI: > 100 µM
[19]
  TGI: > 100 µM
[20]
  TGI: > 100 µM
[21]
  TGI: > 100 µM
[22]
  TGI: > 100 µM
[23]
  TGI: > 100 µM
[24]
  TGI: > 100 µM
[25]
  TGI: > 100 µM
[26]
  TGI: > 100 µM
[27]
  TGI: > 100 µM
[28]
  TGI: > 100 µM
[29]
  TGI: > 100 µM
[30]
  TGI: > 100 µM
[31]
  TGI: > 100 µM
[32]
  TGI: > 100 µM
[33]
  TGI: > 100 µM
[34]
  TGI: > 100 µM
[35]
  TGI: > 100 µM
[36]
  TGI: > 100 µM
[37]
  TGI: > 100 µM
[38]
  TGI: > 100 µM
[39]
  TGI: > 100 µM
[41]
  TGI: > 100 µM
[42]
  TGI: > 100 µM
[43]
  TGI: > 100 µM
[44]
  TGI: > 100 µM
[45]
  TGI: > 100 µM
[46]
  TGI: > 100 µM
[47]
  TGI: > 100 µM
[58]
  TGI: > 100 µM
[48]
  TGI: > 100 µM
[49]
  TGI: > 100 µM
[50]
  TGI: > 100 µM
[51]
  TGI: > 100 µM
[52]
  TGI: > 100 µM
[53]
  TGI: > 100 µM
[54]
  TGI: > 100 µM
[59]
  TGI: > 100 µM
[55]
  TGI: > 100 µM
